The subject of assay [1] is human osteosarcoma cell line SJSA-1. Kind of assay: Inhibition of proliferation of human osteosarcoma cell line SJSA-1 (DAPI staining, In Cell Analyzer). The conditions noted are these: Homo sapiens, SJSA-1, 72 h, read-out: IC50 (nM), inhibitory activity on proliferation of human osteosarcoma cell line SJSA-1, SJSA-1, incubated 72 h.
For assay [2], the target named is T1, MDM2 (Homo sapiens, UniProt Q00987).
T1 construct: made in house
Kind of assay: Inhibition test of MDM2-P53 (GST-MDM2, Biotin-P53, Anti-GST-Tb, SA-XL665). The class given is binding. The essentials: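 Binding was measured by TR-FRET with GST-MDM2 at 4 nM final in PBS with 0.1% BSA, 5 mM DTT and 1 mM AEBSF. Compounds were tested as twelve-point 5-fold dilutions and incubated with the detection mix for 90 min at 25 °C with shaking before plate-reader reading and curve fitting.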

T1 sequence (Q00987 whole entry): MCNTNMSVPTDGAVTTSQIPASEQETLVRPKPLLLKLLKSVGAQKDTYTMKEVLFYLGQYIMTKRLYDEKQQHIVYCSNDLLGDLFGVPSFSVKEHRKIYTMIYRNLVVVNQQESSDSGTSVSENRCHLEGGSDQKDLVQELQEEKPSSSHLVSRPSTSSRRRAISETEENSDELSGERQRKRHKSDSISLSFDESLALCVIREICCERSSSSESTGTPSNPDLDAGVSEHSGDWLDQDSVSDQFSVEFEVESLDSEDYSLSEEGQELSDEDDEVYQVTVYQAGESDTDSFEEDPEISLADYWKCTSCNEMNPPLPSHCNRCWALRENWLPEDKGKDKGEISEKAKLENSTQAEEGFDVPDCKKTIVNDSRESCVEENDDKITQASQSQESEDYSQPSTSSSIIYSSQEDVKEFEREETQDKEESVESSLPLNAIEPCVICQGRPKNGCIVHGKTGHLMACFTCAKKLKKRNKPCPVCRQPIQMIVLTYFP

Regarding `COc1cc(OC)c(-c2nc3c(n2C(C)C)[C@]2(C(=O)Nc4cc(Cl)ccc42)N(c2cc(Cl)ccc2C)C3=O)cc1C` [Example R-83, (R)-6-chloro-5′-(5-chloro-2-methylphenyl)-2′-(2,4-dimethoxy-5-methylphenyl)-3′-isopropyl-3′H-spiro[dihydroindole-3,4′-pyrrolo[3,4-d]imidazole]-2,6′(5′H)-dione], the IC50 in assay [1] came to 589 nM; in assay [2], 87.6 nM.
On the same counts, the results for `COc1cc(C(F)(F)F)ccc1-c1nc2c(n1C(C)C)[C@]1(C(=O)Nc3cc(Cl)ccc31)N(c1cc(Cl)ccc1C)C2=O` [Example R-85, (R)-6-chloro-5′-(5-chloro-2-methylphenyl)-3′-isopropyl-2′-(2-methoxy-4-(trifluoromethyl)phenyl)-3′H-spiro[dihydroindole-3,4′-pyrrolo[3,4-d]imidazole]-2,6′(5′H)-dione] are 2190 nM and 494 nM.
On the same counts, the results for `COc1cc(OC(F)(F)F)ccc1-c1nc2c(n1C(C)C)[C@]1(C(=O)Nc3cc(Cl)ccc31)N(c1cc(Cl)ccc1C)C2=O` [Example R-87, (R)-6-chloro-5′-(5-chloro-2-methylphenyl)-3′-isopropyl-2′-(2-methoxy-4-(trifluoromethoxy)phenyl)-3′H-spiro[dihydroindole-3,4′-pyrrolo[3,4-d]imidazole]-2,6′(5′H)-dione] are 7350 nM and 473 nM.
Consider `COc1cc(N(C)C)c(C)cc1-c1nc2c(n1C(C)C)[C@]1(C(=O)Nc3cc(Cl)ccc31)N(c1cc(Cl)ccc1C)C2=O` [Example R-91, (R)-6-chloro-5′-(5-chloro-2-methylphenyl)-2′-(4-(dimethylamino)-2-methoxy-5-methylphenyl)-3′-isopropyl-3′H-spiro[dihydroindole-3,4′-pyrrolo[3,4-d]imidazole]-2,6′(5′H)-dione], for which the IC50 in assay [1] was 993 nM; in assay [2], 461 nM.
For `COc1cc(OC)c(-c2nc3c(n2C(C)C)[C@]2(C(=O)Nc4cc(Cl)ccc42)N(c2cc(Cl)ccc2C)C3=O)cc1F` [Example R-92, (R)-6-chloro-5′-(5-chloro-2-methylphenyl)-2′-(5-fluoro-2,4-dimethoxyphenyl)-3′-isopropyl-3′H-spiro[dihydroindole-3,4′-pyrrolo[3,4-d]imidazole]-2,6′(5′H)-dione], in that order: 4880 nM and 378 nM.
On the same counts, the results for `CCOc1ncc(-c2nc3c(n2C(C)C)[C@]2(C(=O)Nc4cc(Cl)ccc42)N(c2cc(Cl)ccc2F)C3=O)c(OC)n1` [Example R-97, (R)-6-chloro-5′-(5-chloro-2-fluorophenyl)-2′-(2-ethoxy-4-methoxypyrimidin-5-yl)-3′-isopropyl-3′H-spiro[dihydroindole-3,4′-pyrrolo[3,4-d]imidazole]-2,6′(5′H)-dione] are 396 nM and 5.73 nM.
Consider `CCN(C)c1ccc(-c2nc3c(n2C(C)C)[C@]2(C(=O)Nc4cc(Cl)ccc42)N(c2cc(Cl)ccc2C)C3=O)c(OC)c1` [Example R-99, (R)-6-chloro-5′-(5-chloro-2-methylphenyl)-2′-(4-(ethyl(methyl)amino)-2-methoxyphenyl)-3′-isopropyl-3′H-spiro[dihydroindole-3,4′-pyrrolo[3,4-d]imidazole]-2,6′(5′H)-dione], for which the IC50 in assay [1] amounted to 1470 nM; in assay [2] it was 115 nM.
As for `COc1cc(C2CC2)ncc1-c1nc2c(n1C(C)C)[C@]1(C(=O)Nc3cc(Cl)ccc31)N(c1cc(Cl)ccc1C)C2=O` [Example R-103, (R)-6-chloro-5′-(5-chloro-2-methylphenyl)-2′-(6-cyclopropyl-4-methoxypyridin-3-yl)-3′-isopropyl-3′H-spiro[dihydroindole-3,4′-pyrrolo[3,4-d]imidazole]-2,6′(5′H)-dione], the IC50 in assay [1] amounted to 2430 nM; in assay [2] it was 181 nM.
For `COc1cc(N(C)C)ccc1-c1nc2c(n1C(C)C)[C@]1(C(=O)Nc3cc(Cl)ccc31)N(c1cccc(Cl)c1)C2=O` [Example R-104, (R)-6-chloro-5′-(3-chlorophenyl)-2′-(4-(dimethylamino)-2-methoxyphenyl)-3′-isopropyl-3′H-spiro[dihydroindole-3,4′-pyrrolo[3,4-d]imidazole]-2,6′(5′H)-dione], in that order: 6890 nM and 146 nM.
For the compound `CCc1ccc(-c2nc3c(n2C(C)C)[C@]2(C(=O)Nc4cc(Cl)ccc42)N(c2cccc(Cl)c2)C3=O)c(OC)c1` [Example R-107, (R)-6-chloro-5′-(3-chlorophenyl)-2′-(4-ethyl-2-methoxyphenyl)-3′-isopropyl-3′H-spiro[dihydroindole-3,4′-pyrrolo[3,4-d]imidazole]-2,6′(5′H)-dione], the figures for the IC50 in assay [1] and in assay [2] were 3240 nM and 536 nM, respectively.
`COc1cc(C)ccc1-c1nc2c(n1C(C)C)[C@]1(C(=O)Nc3cc(Cl)ccc31)N(c1cccc(Cl)c1)C2=O` [Example R-109, (R)-6-chloro-5′-(3-chlorophenyl)-3′-isopropyl-2′-(2-methoxy-4-methylphenyl)-3′H-spiro[dihydroindole-3,4′-pyrrolo[3,4-d]imidazole]-2,6′(5′H)-dione]: the IC50 in assay [1] was 8200 nM; in assay [2], 381 nM.
On the same counts, the results for `COc1cc(N(C)C)ncc1-c1nc2c(n1C(C)C)[C@]1(C(=O)Nc3cc(Cl)ccc31)N(c1cc(Cl)ccc1C)C2=O` [Example R-111, (R)-6-chloro-5′-(5-chloro-2-methylphenyl)-2′-(6-(dimethylamino)-4-methoxypyridin-3-yl)-3′-isopropyl-3′H-spiro[dihydroindole-3,4′-pyrrolo[3,4-d]imidazole]-2,6′ (5′H)-dione] are 561 nM and 110 nM.
With `COc1cc(N(C)C)ncc1-c1nc2c(n1C(C)C)[C@]1(C(=O)Nc3cc(Cl)ccc31)N(c1cccc(Cl)c1)C2=O` [Example R-113, (R)-6-chloro-5′-(3-chlorophenyl)-2′-(6-(dimethylamino)-4-methoxypyridin-3-yl)-3′-isopropyl-3′H-spiro[dihydroindole-3,4′-pyrrolo[3,4-d]imidazole]-2,6′(5′H)-dione], the IC50 amounted to 2170 nM in assay [1] and 50.5 nM in assay [2].
For `COc1cc(OC)c(-c2nc3c(n2C(C)C)[C@]2(C(=O)Nc4cc(Cl)ccc42)N(c2cccc(Cl)c2)C3=O)cn1` [Example R-115, (R)-6-chloro-5′-(3-chlorophenyl)-2′-(4,6-dimethoxypyridin-3-yl)-3′-isopropyl-3′H-spiro[dihydroindole-3,4′-pyrrolo[3,4-d]imidazole]-2,6′(5′H)-dione], in that order: 26.9 nM and 269 nM.
For `COc1nc(OC(C)C)ncc1-c1nc2c(n1C(C)C)[C@]1(C(=O)Nc3cc(Cl)ccc31)N(c1cc(Cl)ccc1C)C2=O` [Example R-126, (R)-6-chloro-5′-(5-chloro-2-methylphenyl)-2′-(2-isopropoxy-4-methoxypyrimidin-5-yl)-3′-isopropyl-3′H-spiro[dihydroindole-3,4′-pyrrolo[3,4-d]imidazole]-2,6′(5′H)-dione], in that order: 1590 nM and 193 nM.
Take `CCOc1ncc(-c2nc3c(n2C(C)C)[C@]2(C(=O)Nc4cc(Cl)ccc42)N(c2cc(Cl)ccc2C)C3=O)c(OC)n1` [Example R-127, (R)-6-chloro-5′-(5-chloro-2-methylphenyl)-2′-(2-ethoxy-4-methoxypyrimidin-5-yl)-3′-isopropyl-3′H-spiro[dihydroindole-3,4′-pyrrolo[3,4-d]imidazole]-2,6′(5′H)-dione]: the IC50 in assay [1] amounted to 1570 nM; in assay [2], 91 nM.
As for `COc1nc(OCCF)ncc1-c1nc2c(n1C(C)C)[C@]1(C(=O)Nc3cc(Cl)ccc31)N(c1cc(Cl)ccc1C)C2=O` [Example R-140, (R)-6-chloro-5′-(5-chloro-2-methylphenyl)-2′-(2-(2-fluoroethoxy)-4-methoxypyrimidin-5-yl)-3′-isopropyl-3′H-spiro[dihydroindole-3,4′-pyrrolo[3,4-d]imidazole]-2,6′(5′H)-dione], the values for the IC50 in assay [1] and in assay [2] were 863 nM and 147 nM, respectively.
For `COc1cc(C2CC2)ncc1-c1nc2c(n1C(C)C)[C@]1(C(=O)Nc3cc(Cl)ccc31)N(c1cc(Cl)cnc1C)C2=O` [Example R-143, (R)-6-chloro-5′-(5-chloro-2-methylpyridin-3-yl)-2′-(6-cyclopropyl-4-methoxypyridin-3-yl)-3′-isopropyl-3′H-spiro[dihydroindole-3,4′-pyrrolo[3,4-d]imidazole]-2,6′(5′H)-dione], in that order: 6220 nM and 214 nM.
With `COc1cc(C(F)(F)F)ccc1-c1nc2c(n1C(C)C)[C@]1(C(=O)Nc3cc(Cl)ccc31)N(c1cc(Cl)cnc1C)C2=O` [Example R-144, (R)-6-chloro-5′-(5-chloro-2-methylpyridin-3-yl)-3′-isopropyl-2′-(2-methoxy-4-(trifluoromethyl)phenyl)-3′H-spiro[dihydroindole-3,4′-pyrrolo[3,4-d]imidazole]-2,6′(5′H)-dione], the figures for the IC50 in assay [1] and in assay [2] were 2450 nM and 119 nM, respectively.
On the same counts, the results for `COc1nc(OCC(F)F)ncc1-c1nc2c(n1C(C)C)[C@]1(C(=O)Nc3cc(Cl)ccc31)N(c1cc(Cl)ccc1C)C2=O` [Example R-147, (R)-6-chloro-5′-(5-chloro-2-methylphenyl)-2′-(2-(2,2-difluoroethoxy)-4-methoxypyrimidin-5-yl)-3′-isopropyl-3′H-spiro[dihydroindole-3,4′-pyrrolo[3,4-d]imidazole]-2,6′(5′H)-dione] are 5740 nM and 119 nM.
Regarding `COc1cc(OC(F)F)ncc1-c1nc2c(n1C(C)C)[C@]1(C(=O)Nc3cc(Cl)ccc31)N(c1cc(Cl)ccc1C)C2=O` [Example R-150, (R)-6-chloro-5′-(5-chloro-2-methylphenyl)-2′-(6-(difluoromethoxy)-4-methoxypyridin-3-yl)-3′-isopropyl-3′H-spiro[dihydroindole-3,4′-pyrrolo[3,4-d]imidazole]-2,6′(5′H)-dione], the IC50 in assay [1] was 5700 nM; in assay [2], 377 nM.

The record behind these values is US11339171B2, “MDM2 inhibitors” (Gan & Lee Pharmaceuticals, priority 2017, dated 2022).
